In the supplement of paper PMC10307832:

Experiments:
Assay in all cases: relative viability (nuclei count vs DMSO), 5 days (fraction); higher = more cells survive
[1] = compound: Cn1cnc2c(F)c(Nc3ccc(Br)cc3Cl)c(C(=O)NOCCO)cc21 [Selumetinib] + CC(=O)c1c(C)c2cnc(Nc3ccc(N4CCNCC4)cn3)nc2n(C2CCCC2)c1=O [Palbociclib] (partner 0.5 µM)
Procedure, shortened: (§1)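 A single step with final 0.05% Triton X-100, 1% formaldehyde and 1 ug/ml Hoechst fixed the cells and stained nuclei 5 days after treatment. Lung cancer cell lines in 1536-well plates had been treated by pin tool the day after seeding with one drug alone or a fixed anchor-drug dose plus five library-drug doses (not always all listed) in √10 steps, and nuclei were counted on 4× images. Relative viability is the ratio of nuclei in treated wells to nuclei in vehicle wells, taken as the median of duplicate plates.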

Selumetinib + Alpelisib = compound: Cn1cnc2c(F)c(Nc3ccc(Br)cc3Cl)c(C(=O)NOCCO)cc21 [Selumetinib] + Cc1nc(NC(=O)N2CCC[C@H]2C(N)=O)sc1-c1ccnc(C(C)(C)C(F)(F)F)c1 [Alpelisib] (partner 2 µM)
Procedure, shortened: as §1

Selumetinib + Phenformin = compound: Cn1cnc2c(F)c(Nc3ccc(Br)cc3Cl)c(C(=O)NOCCO)cc21 [Selumetinib] + N=C(N)NC(=N)NCCc1ccccc1 [Phenformin] (partner 250 µM)
Procedure, shortened: as §1

Selumetinib + Tozasertib = compound: Cn1cnc2c(F)c(Nc3ccc(Br)cc3Cl)c(C(=O)NOCCO)cc21 [Selumetinib] + Cc1cc(Nc2cc(N3CCN(C)CC3)nc(Sc3ccc(NC(=O)C4CC4)cc3)n2)n[nH]1 [Tozasertib] (partner 0.1 µM)
Procedure, shortened: as §1

Cell Line | relative viability ([1]; first compound 0.02 µM) | relative viability ([1]; first compound 0.06325 µM) | relative viability ([1]; first compound 0.2 µM) | relative viability ([1]; first compound 0.6325 µM) | relative viability (Selumetinib + Alpelisib; first compound 0.02 µM) | relative viability (Selumetinib + Alpelisib; first compound 0.06325 µM) | relative viability (Selumetinib + Alpelisib; first compound 0.2 µM) | relative viability (Selumetinib + Alpelisib; first compound 0.6325 µM) | relative viability (Selumetinib + Phenformin; first compound 0.02 µM) | relative viability (Selumetinib + Phenformin; first compound 0.06325 µM) | relative viability (Selumetinib + Phenformin; first compound 0.2 µM) | relative viability (Selumetinib + Phenformin; first compound 0.6325 µM) | relative viability (Selumetinib + Tozasertib; first compound 0.02 µM) | relative viability (Selumetinib + Tozasertib; first compound 0.06325 µM) | relative viability (Selumetinib + Tozasertib; first compound 0.2 µM) | relative viability (Selumetinib + Tozasertib; first compound 0.6325 µM)
NCI-H1437 | 0.319 | 0.292 | 0.258 | 0.224 | 0.914 | 0.855 | 0.292 | 0.206 | 0.269 | 0.232 | 0.216 | 0.243 | 0.319 | 0.359 | 0.274 | 0.2
NCI-H23 | 0.494 | 0.393 | 0.354 | 0.314 | 0.628 | 0.589 | 0.438 | 0.358 | 0.834 | 0.706 | 0.774 | 0.519 | 0.36 | 0.301 | 0.224 | 0.31
EPLC-272H | 0.271 | 0.256 | 0.287 | 0.232 | 0.749 | 0.656 | 0.58 | 0.66 | 0.26 | 0.223 | 0.211 | 0.223 | 0.185 | 0.181 | 0.34 | 0.283
NCI-H358 | 0.123 | 0.125 | 0.127 | 0.125 | 0.645 | 0.472 | 0.39 | 0.305 | 0.211 | 0.175 | 0.183 | 0.158 | 0.128 | 0.0891 | 0.0985 | 0.0883
H3255 | 0.318 | 0.353 | 0.339 | 0.339 | 0.596 | 0.678 | 0.573 | 0.556 | 0.385 | 0.367 | 0.332 | 0.318 | 0.624 | 0.687 | 0.74 | 0.556
SK-LU-1 | 0.381 | 0.353 | 0.362 | 0.263 | 1.01 | 0.988 | 0.838 | 0.542 | 0.536 | 0.484 | 0.505 | 0.239 | 0.301 | 0.306 | 0.29 | 0.252
NCI-H727 | 0.473 | 0.517 | 0.489 | 0.423 | 0.309 | 0.225 | 0.253 | 0.202 | 0.455 | 0.381 | 0.375 | 0.355 | 0.403 | 0.357 | 0.338 | 0.294
PC-3 [JPC-3] | 0.484 | 0.566 | 0.515 | 0.571 | 1.02 | 0.935 | 0.9 | 0.752 | 0.446 | 0.489 | 0.473 | 0.414 | 0.991 | 0.813 | 0.769 | 0.655
COR-L 105 | 0.449 | 0.404 | 0.383 | 0.392 | 1.29 | 0.746 | 0.767 | 0.6 | 0.355 | 0.321 | 0.331 | 0.297 | 0.364 | 0.316 | 0.309 | 0.322
NCI-H322M | 0.403 | 0.413 | 0.459 | 0.448 | 0.643 | 0.549 | 0.563 | 0.532 | 0.668 | 0.561 | 0.57 | 0.574 | 0.391 | 0.418 | 0.369 | 0.366
NCI-H1395 | 0.561 | 0.558 | 0.574 | 0.54 | 0.981 | 1.05 | 0.953 | 1.02 | 0.447 | 0.42 | 0.456 | 0.475 | 0.714 | 0.702 | 0.718 | 0.748
NCI-H838 | 0.206 | 0.191 | 0.201 | 0.203 | 0.847 | 0.81 | 0.807 | 0.704 | 0.502 | 0.481 | 0.505 | 0.474 | 0.261 | 0.226 | 0.229 | 0.245
NCI-H1993 | 0.592 | 0.557 | 0.527 | 0.427 | 0.681 | 0.584 | 0.769 | 0.702 | 0.506 | 0.569 | 0.466 | 0.551 | 0.492 | 0.557 | 0.575 | 0.601
CAL-12T | 0.385 | 0.26 | 0.222 | 0.191 | 1.22 | 0.823 | 0.895 | 0.817 | 0.469 | 0.392 | 0.393 | 0.353 | 0.34 | 0.364 | 0.301 | 0.229
LCLC-97TM1 | 0.188 | 0.213 | 0.163 | 0.19 | 0.275 | 0.25 | 0.259 | 0.185 | 0.44 | 0.43 | 0.387 | 0.399 | 0.201 | 0.255 | 0.216 | 0.223
NCI-H1355 | 0.315 | 0.284 | 0.266 | 0.241 | 0.77 | 0.791 | 0.591 | 0.444 | 0.435 | 0.43 | 0.391 | 0.373 | 0.536 | 0.567 | 0.445 | 0.414
NCI-H1944 | 0.303 | 0.312 | 0.253 | 0.231 | 0.71 | 0.677 | 0.594 | 0.52 | 0.192 | 0.195 | 0.157 | 0.168 | 0.238 | 0.228 | 0.233 | 0.203

Cell Line | relative viability ([1]; first compound 0.02 µM) | relative viability ([1]; first compound 0.06325 µM) | relative viability ([1]; first compound 0.2 µM) | relative viability ([1]; first compound 0.6325 µM) | relative viability (Selumetinib + Alpelisib; first compound 0.02 µM) | relative viability (Selumetinib + Alpelisib; first compound 0.06325 µM) | relative viability (Selumetinib + Alpelisib; first compound 0.2 µM) | relative viability (Selumetinib + Alpelisib; first compound 0.6325 µM) | relative viability (Selumetinib + Phenformin; first compound 0.02 µM) | relative viability (Selumetinib + Phenformin; first compound 0.06325 µM) | relative viability (Selumetinib + Phenformin; first compound 0.2 µM) | relative viability (Selumetinib + Phenformin; first compound 0.6325 µM) | relative viability (Selumetinib + Tozasertib; first compound 0.02 µM) | relative viability (Selumetinib + Tozasertib; first compound 0.06325 µM) | relative viability (Selumetinib + Tozasertib; first compound 0.2 µM) | relative viability (Selumetinib + Tozasertib; first compound 0.6325 µM)
NCI-H2085 | 0.464 | 0.462 | 0.415 | 0.355 | 0.884 | 0.742 | 0.796 | 0.873 | 0.637 | 0.623 | 0.602 | 0.481 | 0.737 | 0.592 | 0.552 | 0.593
201T | 0.357 | 0.352 | 0.314 | 0.329 | 0.95 | 0.954 | 0.906 | 0.824 | 0.507 | 0.406 | 0.455 | 0.421 | 0.908 | 0.928 | 0.88 | 0.874
NCI-H2405 | 0.485 | 0.434 | 0.395 | 0.344 | 0.737 | 0.472 | 0.427 | 0.277 | 0.344 | 0.319 | 0.296 | 0.164 | 0.734 | 0.673 | 0.692 | 0.478
LXF-289 | 0.554 | 0.529 | 0.468 | 0.468 | 0.928 | 0.854 | 0.841 | 0.762 | 0.52 | 0.501 | 0.442 | 0.434 | 0.219 | 0.229 | 0.191 | 0.159
LC-2-ad | 0.504 | 0.547 | 0.492 | 0.453 | 0.862 | 0.82 | 0.66 | 0.848 | 0.557 | 0.544 | 0.532 | 0.575 | 0.517 | 0.391 | 0.393 | 0.386
NCI-H2126 | 0.333 | 0.265 | 0.35 | 0.333 | 0.679 | 0.675 | 0.58 | 0.532 | 0.526 | 0.453 | 0.466 | 0.434 | 0.784 | 0.741 | 0.728 | 0.638
COR-L23 | 0.311 | 0.289 | 0.301 | 0.241 | 0.91 | 0.825 | 0.793 | 0.654 | 0.464 | 0.469 | 0.519 | 0.463 | 0.211 | 0.187 | 0.171 | 0.163
BEN | 0.466 | 0.53 | 0.462 | 0.509 | 1.02 | 0.932 | 0.861 | 0.886 | 0.281 | 0.315 | 0.252 | 0.257 | 0.545 | 0.442 | 0.489 | 0.564
LK-2 | 0.772 | 0.851 | 0.706 | 0.802 | 1.01 | 1.13 | 0.949 | 0.985 | 0.561 | 0.576 | 0.539 | 0.477 | 0.17 | 0.189 | 0.221 | 0.144
NCI-H460 | 0.147 | 0.142 | 0.0907 | 0.0517 | 0.464 | 0.21 | 0.172 | 0.137 | 0.479 | 0.397 | 0.309 | 0.176 | 0.379 | 0.283 | 0.246 | 0.152
NCI-H647 | 0.339 | 0.353 | 0.354 | 0.364 | 1.14 | 1.09 | 0.932 | 0.809 | 0.592 | 0.488 | 0.512 | 0.414 | 0.409 | 0.168 | 0.319 | 0.358
ABC-1 | 0.642 | 0.672 | 0.555 | 0.5 | 0.826 | 0.743 | 0.852 | 0.643 | 0.228 | 0.231 | 0.234 | 0.25 | 0.161 | 0.157 | 0.139 | 0.135
NCI-H1734 | 0.304 | 0.332 | 0.36 | 0.313 | 0.638 | 0.66 | 0.587 | 0.596 | 0.351 | 0.298 | 0.345 | 0.248 | 0.244 | 0.251 | 0.234 | 0.227
NCI-H2023 | 0.355 | 0.299 | 0.304 | 0.339 | 0.592 | 0.429 | 0.471 | 0.547 | 0.373 | 0.399 | 0.381 | 0.341 | 0.362 | 0.317 | 0.267 | 0.253
NCI-H2009 | 0.15 | 0.136 | 0.122 | 0.143 | 0.99 | 0.713 | 0.519 | 0.486 | 0.428 | 0.359 | 0.29 | 0.217 | 0.606 | 0.502 | 0.499 | 0.384
HCC-78 | 0.486 | 0.488 | 0.498 | 0.423 | 0.286 | 0.321 | 0.219 | 0.298 | 0.667 | 0.74 | 0.601 | 0.677 | 0.703 | 0.44 | 0.436 | 0.408
